What was measured:
Assay type in all cases: in vivo
Chenopodium album [1] = experiment: post-emergence greenhouse test, CHEAL
Excerpt: (§1) For the post-emergence treatment, the test plants were first grown to a height of 3 to 20 cm, depending on the plant habit, and only then treated. Here, the herbicidal compositions were suspended or emulsified in water as distribution medium and sprayed using finely distributing nozzles.
(§2) The respective herbicides A and/or safener were formulated as 10% by weight strength suspension concentrate and introduced to the spray liquor with the amount of solvent system used for applying the active compound. Herbicide B and/or safener were used as commercially available formulations and introduced to the spray liquor with the amount of solvent system used for applying the active compound. In the examples, the solvent used was water.
(§3) The test period extended over 21 days. During this time, the plants were tended, and their response to the treatments with active compound was evaluated.
(§4) The evaluation for the damage caused by the chemical compositions was carried out using a scale from 0 to 100%, compared to the untreated control plants. Here, 0 means no damage and 100 means complete destruction of the plants.

Galium aparine [2] = experiment: post-emergence greenhouse test, GALAP
Excerpt: as §1, §2, §3, §4

Digitaria sanguinalis = experiment: post-emergence greenhouse test, DIGSA; conditions: 3.13 g ai/ha, 20 DAT, Table 4
Excerpt: as §1, §2, §3, §4

Lolium multiflorum = experiment: post-emergence greenhouse test, LOLMU; conditions: 12.5 g ai/ha, 20 DAT, Table 4
Excerpt: as §1, §2, §3, §4

Setaria faberii [3] = experiment: post-emergence greenhouse test, SETFA; conditions: 12.5 g ai/ha, 20 DAT, Table 4
Excerpt: as §1, §2, §3, §4

Matricaria inermis [4] = experiment: post-emergence greenhouse test, MATIN; conditions: 6.25 g ai/ha, 20 DAT, Table 4
Excerpt: as §1, §2, §3, §4

Setaria faberii [5] = experiment: pre-emergence greenhouse test, SETFA
Excerpt: (§5) For the pre-emergence treatment, directly after sowing the active compounds, which had been suspended or emulsified in water, were applied by means of finely distributed nozzles. The containers were irrigated gently to promote germination and growth and subsequently covered with transparent plastic hoods until plant had rooted. This cover caused uniform germination of the tests plants, unless this was adversely affected by active compounds.
as §2, §3, §4

Setaria italica [6] = experiment: pre-emergence greenhouse test, SETIT; conditions: 25 g ai/ha
Excerpt: as §5, §2, §3, §4

Alopecurus myosuroides [7] = experiment: pre-emergence greenhouse test, ALOMY; conditions: 12.5 g ai/ha
Excerpt: as §5, §2, §3, §4

Bromus inermis = experiment: pre-emergence greenhouse test, BROIN; conditions: 3.13 g ai/ha
Excerpt: as §5, §2, §3, §4

Sorghum halepense [8] = experiment: pre-emergence greenhouse test, SORHA; conditions: 3.13 g ai/ha
Excerpt: as §5, §2, §3, §4

Chenopodium album [9] = experiment: pre-emergence greenhouse test, CHEAL; conditions: 3.13 g ai/ha
Excerpt: as §5, §2, §3, §4

Ipomoea purpurea = experiment: pre-emergence greenhouse test, PHBPU
Excerpt: as §5, §2, §3, §4

Ambrosia artemisifolia = experiment: pre-emergence greenhouse test, AMBEL; conditions: 12.5 g ai/ha
Excerpt: as §5, §2, §3, §4

Matricaria inermis [10] = experiment: pre-emergence greenhouse test, MATIN; conditions: 6.25 g ai/ha
Excerpt: as §5, §2, §3, §4

Galium aparine [11] = experiment: pre-emergence greenhouse test, GALAP; conditions: 3.13 g ai/ha
Excerpt: as §5, §2, §3, §4

Kochia scoparia [12] = experiment: pre-emergence greenhouse test, KCHSC; conditions: 12.5 g ai/ha
Excerpt: as §5, §2, §3, §4

Echinochloa crus-galli = experiment: post-emergence greenhouse test, ECHCG
Excerpt: as §1, §2, §3, §4

Setaria lutescens = experiment: post-emergence greenhouse test, SETLU; conditions: 1.6 g ai/ha
Excerpt: as §1, §2, §3, §4

Alopecurus myosuroides [13] = experiment: post-emergence greenhouse test, ALOMY
Excerpt: as §1, §2, §3, §4

Sorghum halepense [14] = experiment: post-emergence greenhouse test, SORHA; conditions: 1.6 g ai/ha
Excerpt: as §1, §2, §3, §4

Setaria italica [15] = experiment: post-emergence greenhouse test, SETIT
Excerpt: as §1, §2, §3, §4

Polygonum convolvulus = experiment: post-emergence greenhouse test, POLCO
Excerpt: as §1, §2, §3, §4

Solanum nigrum = experiment: post-emergence greenhouse test, SOLNI; conditions: 13 g ai/ha
Excerpt: as §1, §2, §3, §4

Xanthium strumarium = experiment: post-emergence greenhouse test, XANST
Excerpt: as §1, §2, §3, §4

Kochia scoparia [16] = experiment: post-emergence greenhouse test, KCHSC; conditions: 6.25 g ai/ha
Excerpt: as §1, §2, §3, §4

For `C#CCN1C(=O)C(F)(F)Oc2cc(F)c(-n3c(=O)n(C)c(=S)n(C)c3=O)cc21` [compound V-1], the “observed activity in % destruction” value (Chenopodium album [1]; 6.25 g ai/ha, 20 DAT, Table 4) was 60%, the “observed activity in % destruction” value (Galium aparine [2]; 3.13 g ai/ha, 20 DAT, Table 4) was 30% and the “observed activity in % destruction” value (Digitaria sanguinalis) was 35%. For the same compound, the “observed activity in % destruction” value (Lolium multiflorum) was 85%, the “observed activity in % destruction” value (Setaria faberii [3]) was 70% and the “observed activity in % destruction” value (Matricaria inermis [4]) was 90%.

With `CC(C)N(C)S(=O)(=O)NC(=O)c1cc(-n2c(=O)cc(C(F)(F)F)n(C)c2=O)c(F)cc1Cl` [saflufenacil] the observed % activity (Setaria faberii [5]; 6.25 g ai/ha, 8 DAT) was 0%, the observed % activity (Setaria faberii [5]; 6.25 g ai/ha, 20 DAT) was 35% and the observed % activity (Setaria faberii [5]; 12.5 g ai/ha, 8 DAT) was 20%. It also gave an observed % activity (Setaria faberii [5]; 12.5 g ai/ha, 20 DAT) of 35%, an observed % activity (Setaria italica [6]; 8 DAT) of 40% and an observed % activity (Setaria italica [6]; 20 DAT) of 55%. For the same compound, the observed % activity (Alopecurus myosuroides [7]; 8 DAT) was 30%, the observed % activity (Alopecurus myosuroides [7]; 20 DAT) was 30% and the observed % activity (Bromus inermis; 8 DAT) was 0%. It also gave an observed % activity (Bromus inermis; 20 DAT) of 0%, an observed % activity (Sorghum halepense [8]; 8 DAT) of 0% and an observed % activity (Sorghum halepense [8]; 20 DAT) of 0%. It also gave an observed % activity (Chenopodium album [9]; 8 DAT) of 75%, an observed % activity (Chenopodium album [9]; 20 DAT) of 60% and an observed % activity (Ipomoea purpurea; 3.13 g ai/ha, 8 DAT) of 45%. The observed % activity (Ipomoea purpurea; 3.13 g ai/ha, 20 DAT) was 50%, the observed % activity (Ipomoea purpurea; 6.25 g ai/ha, 8 DAT) was 80% and the observed % activity (Ipomoea purpurea; 6.25 g ai/ha, 20 DAT) was 80%. The observed % activity (Ambrosia artemisifolia; 8 DAT) was 70%, the observed % activity (Ambrosia artemisifolia; 20 DAT) was 80% and the observed % activity (Matricaria inermis [10]; 8 DAT) was 95%. It also gave an observed % activity (Matricaria inermis [10]; 20 DAT) of 98%, an observed % activity (Galium aparine [11]; 8 DAT) of 40% and an observed % activity (Galium aparine [11]; 20 DAT) of 40%. The observed % activity (Kochia scoparia [12]; 8 DAT) was 75%, the observed % activity (Kochia scoparia [12]; 20 DAT) was 80% and the observed % activity (Echinochloa crus-galli; 1.6 g ai/ha, 8 DAT) was 10%. The observed % activity (Echinochloa crus-galli; 1.6 g ai/ha, 20 DAT) was 0%, the observed % activity (Echinochloa crus-galli; 6.25 g ai/ha, 8 DAT) was 10% and the observed % activity (Echinochloa crus-galli; 6.25 g ai/ha, 20 DAT) was 0%. The observed % activity (Echinochloa crus-galli; 13 g ai/ha, 8 DAT) was 15%, the observed % activity (Echinochloa crus-galli; 13 g ai/ha, 20 DAT) was 0% and the observed % activity (Setaria lutescens; 8 DAT) was 30%. The observed % activity (Setaria lutescens; 20 DAT) was 10%, the observed % activity (Alopecurus myosuroides [13]; 1.6 g ai/ha, 8 DAT) was 0% and the observed % activity (Alopecurus myosuroides [13]; 1.6 g ai/ha, 20 DAT) was 0%. The observed % activity (Alopecurus myosuroides [13]; 6.25 g ai/ha, 8 DAT) was 20%, the observed % activity (Alopecurus myosuroides [13]; 6.25 g ai/ha, 20 DAT) was 0% and the observed % activity (Alopecurus myosuroides [13]; 13 g ai/ha, 8 DAT) was 35%. It also gave an observed % activity (Alopecurus myosuroides [13]; 13 g ai/ha, 20 DAT) of 15%, an observed % activity (Sorghum halepense [14]; 8 DAT) of 20% and an observed % activity (Sorghum halepense [14]; 20 DAT) of 35%. It also gave an observed % activity (Setaria italica [15]; 3.1 g ai/ha, 8 DAT) of 30%, an observed % activity (Setaria italica [15]; 3.1 g ai/ha, 20 DAT) of 15% and an observed % activity (Setaria italica [15]; 6.25 g ai/ha, 8 DAT) of 30%. For the same compound, the observed % activity (Setaria italica [15]; 6.25 g ai/ha, 20 DAT) was 20%, the observed % activity (Chenopodium album [1]; 6.25 g ai/ha, 8 DAT) was 35% and the observed % activity (Chenopodium album [1]; 6.25 g ai/ha, 20 DAT) was 35%. For the same compound, the observed % activity (Chenopodium album [1]; 13 g ai/ha, 8 DAT) was 45%, the observed % activity (Chenopodium album [1]; 13 g ai/ha, 20 DAT) was 35% and the observed % activity (Polygonum convolvulus; 1.6 g ai/ha, 8 DAT) was 35%. It also gave an observed % activity (Polygonum convolvulus; 1.6 g ai/ha, 20 DAT) of 30%, an observed % activity (Polygonum convolvulus; 13 g ai/ha, 8 DAT) of 95% and an observed % activity (Polygonum convolvulus; 13 g ai/ha, 20 DAT) of 98%. The observed % activity (Solanum nigrum; 8 DAT) was 85%, the observed % activity (Solanum nigrum; 20 DAT) was 85% and the observed % activity (Xanthium strumarium; 1.6 g ai/ha, 8 DAT) was 35%. For the same compound, the observed % activity (Xanthium strumarium; 1.6 g ai/ha, 20 DAT) was 45%, the observed % activity (Xanthium strumarium; 3.1 g ai/ha, 8 DAT) was 70% and the observed % activity (Xanthium strumarium; 3.1 g ai/ha, 20 DAT) was 75%. The observed % activity (Xanthium strumarium; 6.25 g ai/ha, 8 DAT) was 70%, the observed % activity (Xanthium strumarium; 6.25 g ai/ha, 20 DAT) was 80% and the observed % activity (Galium aparine [2]; 1.6 g ai/ha, 8 DAT) was 15%. The observed % activity (Galium aparine [2]; 1.6 g ai/ha, 20 DAT) was 20%, the observed % activity (Galium aparine [2]; 3.1 g ai/ha, 8 DAT) was 25% and the observed % activity (Galium aparine [2]; 3.1 g ai/ha, 20 DAT) was 20%. The observed % activity (Galium aparine [2]; 6.25 g ai/ha, 8 DAT) was 35%, the observed % activity (Galium aparine [2]; 6.25 g ai/ha, 20 DAT) was 30% and the observed % activity (Galium aparine [2]; 13 g ai/ha, 8 DAT) was 80%. For the same compound, the observed % activity (Galium aparine [2]; 13 g ai/ha, 20 DAT) was 70%, the observed % activity (Kochia scoparia [16]; 8 DAT) was 60% and the observed % activity (Kochia scoparia [16]; 20 DAT) was 30%.

Source: US20110015068A1, “Herbicidal Compositions Comprising Pyroxasulfone V” (BASF SE, priority 2008, published 2011)
